# Measurements as given in patent US11065244B2, “Methods of use of tetrahydroberberine (THB)” (DIGNITY HEALTH, priority 2010, dated 2021).
# Assays:
# [1] = biological target: T1, KATP channels in SNc DA neurons (Rattus norvegicus, UniProt P70673+Q09429); experiment: Perforated patch current-clamp recording of rotenone-opened KATP channels in dissociated SNc DA neurons; type: cell-based; details: for altered membrane potential in the presence of rotenone: FIG. 5C
# T1 construct: functional KATP channels natively expressed on midbrain dopamine neurons; from tissue; host or cells: acutely dissociated dopaminergic neurons of rat substantia nigra pars compacta
# Experimental: (§1) The protocol for preparation of single neurons from the rat SNc was approved by the Institutional Animal Care and Use Committee of the Barrow Neurological Institute. Single DA neurons were acutely dissociated from the SNc of 2-3-week-old Wistar rats following the protocol as previously described. Briefly, rats were anesthetized with isoflurane, and brain tissue was rapidly removed and immersed in cold (2-4° C.) dissection solution which contained: 136.7 mM NaCl, 5 mM KCl, 0.1 mM Na2HPO4, 0.2 mM KH2PO4, 9.84 mM HEPES, 16.6 mM D-glucose, 21.9 mM sucrose, pH 7.3, 330 mOsm, oxygenated with 100% O2 [8]. Three 400-μm coronal slices containing the SNc were cut using a vibrotome (Vibroslice 725M, WPI, Sarasota, Fla.). After cutting, slices were continuously bubbled with 95% O2-5% CO2 at room temperature (22±1° C.) for at least one hour in artificial cerebrospinal fluid (ACSF), which contained: 124 mM NaCl, 5 mM KCl, 24 mM NaHCO3, 1.3 mM MgSO4, 1.2 mM KH2PO4, 2.4 mM CaCl2, and 10 mM glucose, pH 7.4. Thereafter, slices were treated with pronase (1 mg per 6 ml) at 31° C. for 30 minutes in ACSF. The SNc was identified in a coronal slice using a stereo microscope with reference to the rat brain atlas, and was micro-punched out from slices using a well-polished needle. One punched piece was then transferred to a 35-mm culture dish filled with well-oxygenated standard extracellular solution, which contained: 150 mM NaCl, 5 mM KCl, 1 mM MgCl2, 2 mM CaCl2, 10 mM glucose 10, and 10 mM HEPES, pH 7.4 (with Tris-base). The punched piece was then dissociated mechanically using a fire-polished micro-Pasteur pipette under an inverted microscope (Olympus IX-70, Lake Success, N.Y.). The separated cells adhered to the bottom of the culture dish within 30 minutes. In the present study, we used only DA neurons that maintained their original morphological features of polygonal, large or medium somata with 2-4 thick primary dendritic processes were used.
# Perforated patch whole-cell recording techniques were employed as previously described. Pipettes (3-5 MΩ) used for perforated patch recording were filled with intracellular recording solution containing 140 mM potassium gluconate, 10 mM KCl, 5 mM MgCl2, and 10 mM HEPES, pH 7.2 (with Tris-OH). The amphotericin B was freshly prepared to 200-240 μg/ml from a 40 mg/ml in DMSO stock. The liquid junction potential was 14 mV calculated using Clamplex 9.2 (Axon Instruments, Foster City, Calif.) and corrections were made for junction potentials post-hoc. After tight seal (>2 GΩ) formation, it usually took about 5-20 min to convert to perforated patch mode, and an access resistance of 20-60 MΩ was accepted to start the experiments. Series resistance was not compensated in this study. The data were filtered at 2 kHz, acquired at 10 kHz and digitized on-line (Digidata 1322 series A/D board, Axon Instruments, Foster City, Calif.). […] Drug application was performed using a computer-controlled “U-tube” system as previously described. All experiments were performed at room temperature (22±1° C.). To enable identification of single, dissociated SNc neurons after a patch-clamp recording session, the recording pipette was filled with a fluorescent dye (lucifer yellow CH, Sigma Chemical Co., St. Louis, Mo., 1.0 mg/ml in the recording electrode) in some experiments. After conversion from the perforated patch to the conventional whole-cell recording mode, the dye was ejected into the cytoplasm by a pulse (200 ms, 0.5 Hz) of hyperpolarizing current (1.0 nA) for 3 min. Labeled cells were visualized using epifluorescence microscopy.
# Under physiological conditions, the KATP channels are mostly closed. However, in the acutely-dissociated single neurons from rat SNc, there is background opening of KATP channels. […]
# [2] = test system: D2 receptor and dopamine-opened K+ channels; experiment: Dopamine-induced membrane potential hyperpolarization in dissociated SNc DA neurons; type: cell-based, rat
# Experimental: All experiments were performed at room temperature (22±1° C.).
# [3] = biological target: T2, neuronal KATP channels (Rattus norvegicus, UniProt P70673+Q09429); experiment: Rotenone-induced outward current in voltage-clamp mode in the presence of the D2 receptor antagonist sulpiride; type: cell-based; details: 100 mM substance as printed; sulpiride present; VH −30 mV; from 125.8±37.1 pA; 6 neurons; p<0.01
# T2 construct: functional KATP channels natively expressed on midbrain dopamine neurons; from tissue; host or cells: acutely dissociated dopaminergic neurons of rat substantia nigra pars compacta
# Experimental: as §1, with “In the present study, we used only DA neurons that maintained their original morphological features of polygonal, large or medium somata with 2-4 thick primary dendritic processes were used.” left out
# Perforated patch whole-cell recording techniques were employed as previously described. […] The liquid junction potential was 14 mV calculated using Clamplex 9.2 (Axon Instruments, Foster City, Calif.) and corrections were made for junction potentials post-hoc. […]
# [4] = biological target: T3, Kir6.2SUR1 KATP channels (Homo sapiens, UniProt Q09428+Q14654); experiment: Patch-clamp cell attached single-channel recording of transfected Kir6.2SUR1 channels in HEK-293 cells; type: cell-based
# T3 construct: expressed in transfected cells; host or cells: HEK-293
# Experimental: In β-cells, the dominant subtype of KATP is the Kir 6.2SUR1 subtype, as earlier described. Cells transiently transfected with the KATP Kir 6.2SUR1 channel subtype were evaluated for membrane potential and action potential firing using cell-attached recording in the presence or absence of 100 μm THB (FIG. 8A).
# To further determine the effects of THB and Ipt on pancreatic β-cell-type KATP channels, the inventor examined the effects of THB or Ipt on the transfected Kir6.2SUR1 KATP channels in HEK-293 cells.
# [5] = biological target: T4, pancreatic β-cell KATP channels (Rattus norvegicus, UniProt P70673+Q09429); experiment: Whole-cell KATP currents induced by ramp pulses in rat pancreatic β-cells; type: cell-based; details: 100 μM bath application; external glucose 5.5 mM; ramp −90 to −50 mV
# T4 construct: Single Channel Currents of KATP Channels in Rat Pancreatic β-Cells; from tissue; host or cells: rat pancreatic β-cells
# Experimental: To determine whether or not THB and Ipt can block pancreatic β-cell KATP channels, whole-cell currents induced by repetitive ramp pulses from −90 to −50 mV (at 0.2 Hz) were recorded in voltage-clamp mode (external glucose=5.5 mM).
# [6] = biological target: T4, pancreatic β-cell KATP channels; experiment: Inside-out patch single channel recording in rat pancreatic β-cells, ATP free solution; type: cell-based; details: bath-applied
# T1 sequence (P70673 whole entry): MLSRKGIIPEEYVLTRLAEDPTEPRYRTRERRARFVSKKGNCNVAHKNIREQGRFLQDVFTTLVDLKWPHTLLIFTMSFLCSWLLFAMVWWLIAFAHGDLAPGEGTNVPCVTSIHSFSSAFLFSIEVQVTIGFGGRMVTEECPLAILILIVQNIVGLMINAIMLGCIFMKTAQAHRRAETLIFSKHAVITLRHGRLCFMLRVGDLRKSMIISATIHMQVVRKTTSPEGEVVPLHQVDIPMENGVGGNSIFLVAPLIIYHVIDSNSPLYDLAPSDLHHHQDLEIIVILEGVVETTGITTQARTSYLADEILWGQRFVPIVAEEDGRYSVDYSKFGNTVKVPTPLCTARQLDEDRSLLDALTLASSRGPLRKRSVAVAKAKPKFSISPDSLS
# T1 sequence (Q09429 whole entry): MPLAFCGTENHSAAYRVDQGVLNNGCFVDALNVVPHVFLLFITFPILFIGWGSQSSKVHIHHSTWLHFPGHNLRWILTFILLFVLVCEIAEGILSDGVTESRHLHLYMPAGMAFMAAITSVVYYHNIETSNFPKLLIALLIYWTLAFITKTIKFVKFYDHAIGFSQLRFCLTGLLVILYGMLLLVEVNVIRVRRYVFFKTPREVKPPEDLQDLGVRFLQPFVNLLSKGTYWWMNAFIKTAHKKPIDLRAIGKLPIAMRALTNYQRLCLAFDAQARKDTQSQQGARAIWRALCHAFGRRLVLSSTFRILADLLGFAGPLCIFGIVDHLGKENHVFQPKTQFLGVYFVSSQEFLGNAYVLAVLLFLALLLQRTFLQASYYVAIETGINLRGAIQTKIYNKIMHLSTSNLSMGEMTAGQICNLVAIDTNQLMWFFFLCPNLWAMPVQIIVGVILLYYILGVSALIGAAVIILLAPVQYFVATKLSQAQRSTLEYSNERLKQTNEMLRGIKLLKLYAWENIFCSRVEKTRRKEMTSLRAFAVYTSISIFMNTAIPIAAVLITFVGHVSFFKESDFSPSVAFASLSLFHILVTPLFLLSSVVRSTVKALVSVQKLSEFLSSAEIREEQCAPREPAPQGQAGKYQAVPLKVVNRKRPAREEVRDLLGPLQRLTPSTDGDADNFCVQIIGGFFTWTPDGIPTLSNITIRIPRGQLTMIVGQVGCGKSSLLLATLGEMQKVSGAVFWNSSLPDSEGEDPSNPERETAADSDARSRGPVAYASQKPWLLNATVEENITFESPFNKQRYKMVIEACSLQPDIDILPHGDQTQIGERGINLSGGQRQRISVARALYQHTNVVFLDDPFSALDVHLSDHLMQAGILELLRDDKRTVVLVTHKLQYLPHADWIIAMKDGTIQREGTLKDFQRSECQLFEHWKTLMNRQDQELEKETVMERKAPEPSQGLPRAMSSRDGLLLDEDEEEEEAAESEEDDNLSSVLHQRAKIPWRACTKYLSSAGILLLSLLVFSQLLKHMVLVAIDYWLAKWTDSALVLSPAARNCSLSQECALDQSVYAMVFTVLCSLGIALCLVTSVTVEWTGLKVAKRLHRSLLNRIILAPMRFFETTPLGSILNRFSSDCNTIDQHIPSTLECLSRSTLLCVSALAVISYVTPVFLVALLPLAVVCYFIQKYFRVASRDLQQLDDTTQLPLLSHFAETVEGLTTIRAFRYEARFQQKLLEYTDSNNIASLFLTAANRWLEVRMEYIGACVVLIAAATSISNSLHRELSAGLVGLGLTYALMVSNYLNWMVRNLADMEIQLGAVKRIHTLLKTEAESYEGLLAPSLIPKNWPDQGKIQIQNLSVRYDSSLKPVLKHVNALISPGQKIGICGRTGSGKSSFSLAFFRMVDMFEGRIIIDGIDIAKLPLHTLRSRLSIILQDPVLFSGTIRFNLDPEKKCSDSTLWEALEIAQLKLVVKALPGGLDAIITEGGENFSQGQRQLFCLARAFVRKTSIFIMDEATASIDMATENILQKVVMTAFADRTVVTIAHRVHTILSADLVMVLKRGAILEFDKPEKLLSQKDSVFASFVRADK
# T4 sequence (P70673 whole entry): as the sequence (P70673 whole entry) above
# T4 sequence (Q09429 whole entry): as the sequence (Q09429 whole entry) above
# T3 sequence (Q14654 whole entry): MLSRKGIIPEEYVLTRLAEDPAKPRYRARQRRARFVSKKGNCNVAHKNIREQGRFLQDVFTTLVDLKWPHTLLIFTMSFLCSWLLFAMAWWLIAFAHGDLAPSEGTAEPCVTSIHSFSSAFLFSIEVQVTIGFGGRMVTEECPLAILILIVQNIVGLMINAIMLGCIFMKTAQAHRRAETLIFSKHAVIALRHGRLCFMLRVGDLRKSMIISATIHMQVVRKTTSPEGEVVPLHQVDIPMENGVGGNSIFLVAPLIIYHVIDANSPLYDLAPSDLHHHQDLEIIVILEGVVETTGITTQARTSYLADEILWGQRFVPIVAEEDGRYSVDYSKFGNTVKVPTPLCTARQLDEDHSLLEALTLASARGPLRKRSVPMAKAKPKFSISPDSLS
# T3 sequence (Q09428 whole entry): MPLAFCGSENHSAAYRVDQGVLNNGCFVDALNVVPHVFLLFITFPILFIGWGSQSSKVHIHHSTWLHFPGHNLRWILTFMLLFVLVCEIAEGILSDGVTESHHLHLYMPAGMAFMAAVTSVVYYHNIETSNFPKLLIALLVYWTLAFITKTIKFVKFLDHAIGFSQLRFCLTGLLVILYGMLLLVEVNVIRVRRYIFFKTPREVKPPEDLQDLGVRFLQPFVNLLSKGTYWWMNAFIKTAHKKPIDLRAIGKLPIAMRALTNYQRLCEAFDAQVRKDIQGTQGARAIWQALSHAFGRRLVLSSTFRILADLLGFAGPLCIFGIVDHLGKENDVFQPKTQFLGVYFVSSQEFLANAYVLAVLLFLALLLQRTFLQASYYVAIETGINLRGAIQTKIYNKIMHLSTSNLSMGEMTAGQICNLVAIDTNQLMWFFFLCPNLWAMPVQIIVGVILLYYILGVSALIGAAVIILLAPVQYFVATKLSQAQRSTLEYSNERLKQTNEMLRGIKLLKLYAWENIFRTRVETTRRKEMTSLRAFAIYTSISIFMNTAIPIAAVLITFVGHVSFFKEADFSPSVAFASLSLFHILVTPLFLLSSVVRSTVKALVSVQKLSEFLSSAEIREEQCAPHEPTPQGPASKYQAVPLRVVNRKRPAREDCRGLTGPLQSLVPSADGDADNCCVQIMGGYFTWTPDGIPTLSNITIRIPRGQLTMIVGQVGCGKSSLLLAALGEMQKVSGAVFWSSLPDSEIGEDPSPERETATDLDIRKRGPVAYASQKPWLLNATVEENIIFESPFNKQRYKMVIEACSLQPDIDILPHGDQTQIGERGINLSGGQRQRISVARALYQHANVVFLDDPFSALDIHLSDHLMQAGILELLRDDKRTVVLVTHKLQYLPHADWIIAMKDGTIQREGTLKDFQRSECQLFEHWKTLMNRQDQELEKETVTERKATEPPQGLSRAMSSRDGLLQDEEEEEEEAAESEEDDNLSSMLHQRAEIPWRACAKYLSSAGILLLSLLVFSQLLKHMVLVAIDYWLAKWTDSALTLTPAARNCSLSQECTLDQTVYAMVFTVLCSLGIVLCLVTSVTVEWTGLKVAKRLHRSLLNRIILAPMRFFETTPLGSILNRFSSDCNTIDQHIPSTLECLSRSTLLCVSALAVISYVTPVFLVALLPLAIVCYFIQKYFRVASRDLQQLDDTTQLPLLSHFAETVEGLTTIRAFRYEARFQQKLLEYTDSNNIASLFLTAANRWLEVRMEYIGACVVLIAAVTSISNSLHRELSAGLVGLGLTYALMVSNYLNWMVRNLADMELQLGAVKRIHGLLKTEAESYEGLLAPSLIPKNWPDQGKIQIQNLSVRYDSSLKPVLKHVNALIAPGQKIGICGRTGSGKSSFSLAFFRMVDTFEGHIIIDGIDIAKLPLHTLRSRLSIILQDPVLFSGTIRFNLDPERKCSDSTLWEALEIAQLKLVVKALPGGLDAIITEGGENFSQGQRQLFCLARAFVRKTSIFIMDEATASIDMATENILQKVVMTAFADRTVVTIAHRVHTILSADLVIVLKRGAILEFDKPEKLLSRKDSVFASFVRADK
# T2 sequence (P70673 whole entry): as the sequence (P70673 whole entry) above
# T2 sequence (Q09429 whole entry): as the sequence (Q09429 whole entry) above
smiles,measurement,setting,value
"COc1ccc2c(c1OC)CN1CCc3cc4c(cc3C1C2)OCO4 (stereo not drawn) [THB, tetrahydroberberine]",membrane potential after substance during persistent perfusion of rotenone,"[1]; 1 μM rotenone, before: THB −61.7±1.3 (n=11), tolbutamide −61.6±1.2 (n=21), p<0.01",−46.7±0.9 mV
same,altered membrane potential in the presence of rotenone,[1]; 1 μM substance,0.8±0.3 mV
same,altered membrane potential in the presence of rotenone,[1]; 10 μM substance,5.7±0.7 mV
same,altered membrane potential in the presence of rotenone,[1]; 100 μM substance,15.1±1.2 mV
same,"altered membrane potential (depolarization) on rotenone-opened KATP channels, analog comparison","[1]; 100 μM, 6 neurons, FIG. 4B",15.5±1.6 mV
same,Hill coefficient of concentration-effect relationship curve,[1]; membrane depolarization in the presence of rotenone,2.1
same,IC50,"[1]; membrane depolarization in the presence of rotenone, read-out: IC50 of concentration-effect relationship curve (block of KATP channels)",13.1 µM
same,effect on rotenone-induced membrane hyperpolarization in the presence of D2 receptor antagonist,"[1]; rotenone 1 mM and sulpiride 10 mM as printed, 6 neurons, FIG. 7A",significantly restored membrane hyperpolarization and action potential firing
same,membrane potential after co-application of dopamine with substance,"[2]; 100 μM THB (from −45.6±1.0, n=7), tolbutamide (from −45.3±2.3, n=4)",−38.6±1.2 mV
same,altered membrane potential on co-application with dopamine,[2]; difference THB vs tolbutamide p>0.05,7.0±0.9 mV
same,rotenone-induced outward current amplitude after addition of substance,[3],52.5±25.7 pA
same,normalized NPo value,"[4]; 100 μM, control as 1, THB 6 patches, Ipt 8 patches",0.51±0.05
same,change in channel activity NP0 compared to control,"[4]; 100 μm THB, three experiments, FIG. 8B",50%
same,effect on β-cell KATP channel-mediated whole-cell currents,[5],reduced these β-cell KATP channel-mediated currents
same,effect on single channel activities opened by ATP free solution,[6],inhibited these single channel activities
